{"source": "patent US12071469B2", "about": "“Peptide compounds for suppressing inflammation” (Duke University, priority 2011, dated 2024)", "key": {"[1]": {"tested_on": "mice with intracerebral hemorrhage", "assay": "Rotorod vestibulomotor function after intracerebral hemorrhage (collagenase injection)", "format": "in vivo, mouse", "conditions": "0.05 mg/kg iv at 2 h and 6 h after intracerebral hemorrhage", "experimental": "An experimental murine model for intracerebral hemorrhage was also provided. James, et al. (2009) Stroke, 40:632-39. Male mice (age 16-20 weeks) were anesthetized with 4.6% isoflurane in oxygen in an anesthesia induction box for 90 seconds. The trachea was intubated and the lungs mechanically ventilated with 1.6% isoflurane in a 70/30 mixture of nitrogen/oxygen. Body temperature was maintained at 37° C. using an underbody warming system. The animal's head was secured in a stereotactic frame, local anesthetic was injected, and the scalp incised. […]\nAn experimental procedure for measuring neurological deficits was developed. […] The average time to fall from the rotating cylinder in the latter three trials was recorded as baseline latency. […] Average latency to fall from the rod was recorded, and mice unable to grip the rod were scored with a latency of 0 seconds.\nGroups of mice received either an ApoE mimetic peptide (SEQ ID NO:4; 0.05 mg/kg) or carrier (saline) by intravenous tail vein injection a 2 hours and again at 6 hours after intracerebral hemorrhage induced as described in Example 3. Each mouse was tested for vestibulomotor function by rotorod latency measured before and after induced intracerebral hemorrhage as described in Example 3."}, "mice with blast injury": {"tested_on": "mice with blast injury", "assay": "Morris water maze after blast injury (shock tube blast model)", "format": "in vivo, mouse", "experimental": "Another experimental procedure for measuring neurological deficits was developed using a Morris water maze. The procedure used a black aluminum pool containing a movable platform (7.5 cm diameter) and filled with 25-27° C. water opacified with powdered milk. Each training or testing session consisted of four trials per day with an interval of 20-30 minutes between trials. One day before testing, mice were trained using a visible platform (platform flagged and located in a different quadrant each trial to minimize quadrant habituation, no extra-maze visual cues) to habituate the mice to handling and swimming and to teach the mice the goal of the test-escaping the water by climbing on the platform. […] Latency to finding the platform and swimming speed were recorded using a computerized video tracking system (Ethovision 2.2.14; available from Noldus Information Technology, Leesburg VA). […]\nThe shock tube was mounted vertically on an extruded aluminum frame using three vibration-damping U-bolts. […] Peak incident overpressure, positive-phase duration, and peak incident impulse were recorded in the three end-tube PTs for each test (data not shown). […] Atmospheric conditions (temperature, barometric pressure, humidity) were recorded prior to each test. […]"}}}
{"substance": "Ac-VSRRR-NH2 [VR-55, Ac-VSRRR-NH2]", "values": [{"measurement": "durability of effect on rotorod latency", "setting": "[1]", "value": "durable through the five-day testing period"}, {"measurement": "vestibulomotor performance (rotorod latency) compared to carrier", "setting": "[1]; FIG. 5", "value": "improved vestibulomotor performance"}, {"measurement": "neurocognitive deficit after blast injury (Morris water maze)", "setting": "mice with blast injury; FIG. 8, groups of 15", "value": "reduces neurocognitive deficit after blast injury"}, {"measurement": "time in the correct quadrant (probe trial)", "setting": "mice with blast injury; blast injury, vehicle 17.8±1.9 seconds, p=0.24", "value": "21.8 ± 2.7", "unit": "s"}]}
